Two compounds from ChEMBL document CHEMBL5120882, “Medicinal Chemistry Perspective on Targeting Mono-ADP-Ribosylating PARPs with Small Molecules” (J Med Chem, 2022) can be followed below.

Assay [1] has as its target T1, Protein mono-ADP-ribosyltransferase PARP10 (Homo sapiens, UniProt Q53GL7).
T1 sequence (Q53GL7 whole entry): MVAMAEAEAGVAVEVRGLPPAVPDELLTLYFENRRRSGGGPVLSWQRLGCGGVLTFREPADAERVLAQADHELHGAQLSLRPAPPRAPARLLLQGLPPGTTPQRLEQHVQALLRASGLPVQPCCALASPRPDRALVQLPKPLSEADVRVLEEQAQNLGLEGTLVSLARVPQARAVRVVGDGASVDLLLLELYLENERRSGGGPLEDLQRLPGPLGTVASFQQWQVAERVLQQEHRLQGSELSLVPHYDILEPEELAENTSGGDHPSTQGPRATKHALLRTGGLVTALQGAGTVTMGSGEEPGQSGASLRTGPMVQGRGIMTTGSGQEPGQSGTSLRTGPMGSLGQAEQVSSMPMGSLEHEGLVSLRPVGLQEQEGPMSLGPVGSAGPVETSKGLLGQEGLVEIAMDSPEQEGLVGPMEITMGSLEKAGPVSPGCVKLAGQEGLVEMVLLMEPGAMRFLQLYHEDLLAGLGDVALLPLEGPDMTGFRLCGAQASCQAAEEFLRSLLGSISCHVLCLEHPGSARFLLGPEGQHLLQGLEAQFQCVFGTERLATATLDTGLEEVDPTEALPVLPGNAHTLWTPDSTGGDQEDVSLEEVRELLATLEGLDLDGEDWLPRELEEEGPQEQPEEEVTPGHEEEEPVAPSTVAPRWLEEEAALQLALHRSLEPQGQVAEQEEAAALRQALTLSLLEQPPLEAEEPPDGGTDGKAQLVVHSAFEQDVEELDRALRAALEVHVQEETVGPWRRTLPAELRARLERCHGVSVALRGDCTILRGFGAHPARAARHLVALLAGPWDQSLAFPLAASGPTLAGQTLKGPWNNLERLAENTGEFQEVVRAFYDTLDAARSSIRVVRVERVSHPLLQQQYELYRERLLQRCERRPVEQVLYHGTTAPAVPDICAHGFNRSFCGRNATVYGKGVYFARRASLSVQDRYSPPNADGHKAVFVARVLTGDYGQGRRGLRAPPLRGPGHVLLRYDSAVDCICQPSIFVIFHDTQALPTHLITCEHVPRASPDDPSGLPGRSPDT
Briefly: Inhibition of C-terminal his-tagged human PARP10 expressed in Escherichia coli Rosette2 (DE3).

Assay [2] addresses Poly [ADP-ribose] polymerase 2 (Homo sapiens, UniProt Q9UGN5). Briefly: Inhibition of N-terminal his-tagged human PARP2 expressed in Escherichia coli Rosette2 (DE3).
Assay [3] concerns the target T2, Protein mono-ADP-ribosyltransferase PARP15 (Homo sapiens, UniProt Q460N3).
T2 sequence (Q460N3 whole entry): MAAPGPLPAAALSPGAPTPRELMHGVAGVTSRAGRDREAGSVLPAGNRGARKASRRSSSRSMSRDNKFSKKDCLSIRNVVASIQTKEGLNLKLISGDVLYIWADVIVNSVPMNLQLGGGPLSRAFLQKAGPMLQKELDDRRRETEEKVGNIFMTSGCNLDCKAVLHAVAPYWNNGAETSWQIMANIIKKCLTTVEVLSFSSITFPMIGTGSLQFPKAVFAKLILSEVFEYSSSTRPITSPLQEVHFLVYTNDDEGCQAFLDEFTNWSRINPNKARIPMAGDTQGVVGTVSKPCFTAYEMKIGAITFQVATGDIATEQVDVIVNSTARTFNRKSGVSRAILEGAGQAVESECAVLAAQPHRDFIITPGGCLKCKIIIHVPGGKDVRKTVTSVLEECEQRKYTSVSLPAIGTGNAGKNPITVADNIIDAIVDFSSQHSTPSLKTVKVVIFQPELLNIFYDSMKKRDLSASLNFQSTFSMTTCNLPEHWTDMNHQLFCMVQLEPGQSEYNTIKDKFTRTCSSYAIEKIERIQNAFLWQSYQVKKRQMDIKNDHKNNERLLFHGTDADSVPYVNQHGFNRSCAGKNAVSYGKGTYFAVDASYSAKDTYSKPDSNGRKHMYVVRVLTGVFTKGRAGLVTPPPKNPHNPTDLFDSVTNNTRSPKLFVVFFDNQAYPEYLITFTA
Briefly: Inhibition of N-terminal his-tagged human PARP15 expressed in Escherichia coli Rosette2 (DE3).

Assay [4] addresses T3, Poly [ADP-ribose] polymerase tankyrase-2 (Homo sapiens, UniProt Q9H2K2).
T3 sequence (Q9H2K2 whole entry): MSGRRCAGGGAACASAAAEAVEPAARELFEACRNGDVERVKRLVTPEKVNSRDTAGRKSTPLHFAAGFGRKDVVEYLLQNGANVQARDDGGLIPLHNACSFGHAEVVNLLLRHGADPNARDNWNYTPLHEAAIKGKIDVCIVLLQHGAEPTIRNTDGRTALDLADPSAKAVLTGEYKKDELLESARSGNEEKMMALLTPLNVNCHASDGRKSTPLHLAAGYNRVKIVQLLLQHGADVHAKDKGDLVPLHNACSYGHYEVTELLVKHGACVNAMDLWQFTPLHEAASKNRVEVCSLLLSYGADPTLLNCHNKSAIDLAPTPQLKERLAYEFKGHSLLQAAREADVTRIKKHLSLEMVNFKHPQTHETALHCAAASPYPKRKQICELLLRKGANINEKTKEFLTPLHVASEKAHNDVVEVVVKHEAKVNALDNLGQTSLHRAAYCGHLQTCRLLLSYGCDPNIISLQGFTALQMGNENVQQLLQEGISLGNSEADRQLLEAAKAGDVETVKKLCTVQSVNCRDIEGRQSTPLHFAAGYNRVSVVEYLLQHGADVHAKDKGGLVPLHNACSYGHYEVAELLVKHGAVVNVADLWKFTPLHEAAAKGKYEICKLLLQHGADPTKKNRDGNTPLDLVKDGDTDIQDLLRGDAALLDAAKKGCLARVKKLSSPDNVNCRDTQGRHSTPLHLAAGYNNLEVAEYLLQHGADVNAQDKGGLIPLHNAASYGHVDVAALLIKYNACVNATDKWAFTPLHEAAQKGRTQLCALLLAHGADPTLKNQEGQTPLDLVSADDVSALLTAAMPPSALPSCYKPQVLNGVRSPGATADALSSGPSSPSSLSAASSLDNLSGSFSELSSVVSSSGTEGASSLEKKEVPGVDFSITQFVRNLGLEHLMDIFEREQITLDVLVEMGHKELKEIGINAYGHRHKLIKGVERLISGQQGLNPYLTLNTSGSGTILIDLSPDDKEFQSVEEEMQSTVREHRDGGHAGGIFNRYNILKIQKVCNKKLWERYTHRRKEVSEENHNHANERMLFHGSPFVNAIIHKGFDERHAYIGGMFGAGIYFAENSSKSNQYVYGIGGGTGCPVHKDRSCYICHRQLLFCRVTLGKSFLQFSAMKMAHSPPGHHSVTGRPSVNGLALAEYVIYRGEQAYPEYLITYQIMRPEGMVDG
As to the kind of experiment: Inhibition of N-terminal his-tagged human TNKS2 expressed in Escherichia coli Rosette2 (DE3).

In assay [5] the target is Protein mono-ADP-ribosyltransferase PARP14 (Homo sapiens, UniProt Q460N5). Briefly: Inhibition of N-terminal his-tagged human PARP14 expressed in Escherichia coli Rosette2 (DE3).
Sequence of Protein mono-ADP-ribosyltransferase PARP14 (Q460N5 whole entry): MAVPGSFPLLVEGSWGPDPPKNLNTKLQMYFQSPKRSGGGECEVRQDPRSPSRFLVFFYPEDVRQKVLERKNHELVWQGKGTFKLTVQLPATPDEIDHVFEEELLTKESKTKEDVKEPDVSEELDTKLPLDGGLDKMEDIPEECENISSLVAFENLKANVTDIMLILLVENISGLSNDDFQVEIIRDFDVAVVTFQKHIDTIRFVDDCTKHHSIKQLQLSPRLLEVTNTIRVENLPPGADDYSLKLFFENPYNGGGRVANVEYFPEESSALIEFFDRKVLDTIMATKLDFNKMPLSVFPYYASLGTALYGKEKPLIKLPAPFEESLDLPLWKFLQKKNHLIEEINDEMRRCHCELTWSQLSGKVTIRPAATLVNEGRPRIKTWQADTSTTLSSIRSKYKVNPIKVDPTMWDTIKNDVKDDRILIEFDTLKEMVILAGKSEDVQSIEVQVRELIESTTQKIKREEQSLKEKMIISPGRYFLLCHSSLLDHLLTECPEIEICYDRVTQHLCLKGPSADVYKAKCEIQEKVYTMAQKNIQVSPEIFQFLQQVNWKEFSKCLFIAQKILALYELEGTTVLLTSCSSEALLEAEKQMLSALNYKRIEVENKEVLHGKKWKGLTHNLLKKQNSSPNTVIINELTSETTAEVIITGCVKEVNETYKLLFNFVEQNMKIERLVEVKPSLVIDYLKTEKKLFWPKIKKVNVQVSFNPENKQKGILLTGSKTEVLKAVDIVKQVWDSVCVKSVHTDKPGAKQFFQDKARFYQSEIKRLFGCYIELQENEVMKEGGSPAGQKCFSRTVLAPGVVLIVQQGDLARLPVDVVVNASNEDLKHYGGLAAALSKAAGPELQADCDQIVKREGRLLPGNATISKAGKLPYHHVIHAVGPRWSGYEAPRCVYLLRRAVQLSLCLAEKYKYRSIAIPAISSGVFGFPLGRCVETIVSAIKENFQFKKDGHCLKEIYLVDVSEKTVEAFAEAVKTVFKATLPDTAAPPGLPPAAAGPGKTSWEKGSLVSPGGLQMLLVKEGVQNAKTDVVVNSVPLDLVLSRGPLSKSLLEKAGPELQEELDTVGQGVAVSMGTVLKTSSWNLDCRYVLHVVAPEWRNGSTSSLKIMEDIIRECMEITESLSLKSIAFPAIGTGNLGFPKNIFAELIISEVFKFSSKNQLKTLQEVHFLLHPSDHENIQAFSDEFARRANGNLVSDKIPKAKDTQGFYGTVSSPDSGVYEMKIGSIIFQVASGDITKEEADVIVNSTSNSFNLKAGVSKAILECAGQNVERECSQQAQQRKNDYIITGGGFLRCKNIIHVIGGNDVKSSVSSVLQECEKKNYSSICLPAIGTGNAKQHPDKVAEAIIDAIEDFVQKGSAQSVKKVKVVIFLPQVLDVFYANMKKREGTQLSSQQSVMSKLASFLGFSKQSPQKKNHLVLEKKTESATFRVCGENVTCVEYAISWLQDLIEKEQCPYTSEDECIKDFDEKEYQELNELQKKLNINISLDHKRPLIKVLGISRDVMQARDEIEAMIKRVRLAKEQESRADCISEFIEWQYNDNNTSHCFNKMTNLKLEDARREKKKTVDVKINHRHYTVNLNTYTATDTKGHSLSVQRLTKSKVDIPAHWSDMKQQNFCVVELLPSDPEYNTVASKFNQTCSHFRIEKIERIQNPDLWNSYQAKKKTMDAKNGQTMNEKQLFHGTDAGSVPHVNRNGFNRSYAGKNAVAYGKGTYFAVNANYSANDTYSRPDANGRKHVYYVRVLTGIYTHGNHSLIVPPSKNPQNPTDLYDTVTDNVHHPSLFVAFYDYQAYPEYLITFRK

pIC50: −log10 of the molar value.

Sequence of Poly [ADP-ribose] polymerase 2 (Q9UGN5 whole entry): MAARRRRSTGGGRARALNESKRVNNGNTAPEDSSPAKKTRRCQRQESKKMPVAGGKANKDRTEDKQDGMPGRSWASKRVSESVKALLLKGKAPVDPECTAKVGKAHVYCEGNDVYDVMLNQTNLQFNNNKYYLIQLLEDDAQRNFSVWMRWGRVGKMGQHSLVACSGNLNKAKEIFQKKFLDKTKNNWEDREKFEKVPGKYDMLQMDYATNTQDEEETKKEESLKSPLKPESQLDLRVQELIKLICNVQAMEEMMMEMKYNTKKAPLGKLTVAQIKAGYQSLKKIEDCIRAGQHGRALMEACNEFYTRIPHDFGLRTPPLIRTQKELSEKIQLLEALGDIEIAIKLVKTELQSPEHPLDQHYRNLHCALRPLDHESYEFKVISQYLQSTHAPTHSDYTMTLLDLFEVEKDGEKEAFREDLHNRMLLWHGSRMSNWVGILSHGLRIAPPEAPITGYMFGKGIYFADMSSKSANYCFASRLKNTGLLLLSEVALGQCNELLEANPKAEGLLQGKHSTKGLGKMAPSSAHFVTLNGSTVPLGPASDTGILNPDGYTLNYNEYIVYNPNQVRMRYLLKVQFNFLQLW

As a reminder, the pIC50 is −log10 of the IC50, conventionally taken in molar units. The low end stands for a high IC50, the high end for a low IC50. Take `N#Cc1ccc(Oc2ccc(C(N)=O)cc2)cc1`: the negative-log IC50 (pIC50) is 5.44 in assay [1]; 4.57 in assay [2]; 4.96 in assay [3]; less than 4.00 in assay [4]; less than 4.00 in assay [5].
With `NC(=O)c1ccc(Oc2cccc(C(N)=O)c2)cc1`, the pIC50 was 6.32 in assay [1]; 5.77 in assay [2]; 5.77 in assay [3]; 5.19 in assay [4]; 4.39 in assay [5].
